Target: T1, human HCN1 channel (Homo sapiens, UniProt O60741, S680F)
T1 construct: Effect of ZD 7288 (100 micromolar) on hHCN1 (full-length) currents; expressed in transfected cells; host or cells: HEK 293F
T1 sequence (O60741 1-890 S680F): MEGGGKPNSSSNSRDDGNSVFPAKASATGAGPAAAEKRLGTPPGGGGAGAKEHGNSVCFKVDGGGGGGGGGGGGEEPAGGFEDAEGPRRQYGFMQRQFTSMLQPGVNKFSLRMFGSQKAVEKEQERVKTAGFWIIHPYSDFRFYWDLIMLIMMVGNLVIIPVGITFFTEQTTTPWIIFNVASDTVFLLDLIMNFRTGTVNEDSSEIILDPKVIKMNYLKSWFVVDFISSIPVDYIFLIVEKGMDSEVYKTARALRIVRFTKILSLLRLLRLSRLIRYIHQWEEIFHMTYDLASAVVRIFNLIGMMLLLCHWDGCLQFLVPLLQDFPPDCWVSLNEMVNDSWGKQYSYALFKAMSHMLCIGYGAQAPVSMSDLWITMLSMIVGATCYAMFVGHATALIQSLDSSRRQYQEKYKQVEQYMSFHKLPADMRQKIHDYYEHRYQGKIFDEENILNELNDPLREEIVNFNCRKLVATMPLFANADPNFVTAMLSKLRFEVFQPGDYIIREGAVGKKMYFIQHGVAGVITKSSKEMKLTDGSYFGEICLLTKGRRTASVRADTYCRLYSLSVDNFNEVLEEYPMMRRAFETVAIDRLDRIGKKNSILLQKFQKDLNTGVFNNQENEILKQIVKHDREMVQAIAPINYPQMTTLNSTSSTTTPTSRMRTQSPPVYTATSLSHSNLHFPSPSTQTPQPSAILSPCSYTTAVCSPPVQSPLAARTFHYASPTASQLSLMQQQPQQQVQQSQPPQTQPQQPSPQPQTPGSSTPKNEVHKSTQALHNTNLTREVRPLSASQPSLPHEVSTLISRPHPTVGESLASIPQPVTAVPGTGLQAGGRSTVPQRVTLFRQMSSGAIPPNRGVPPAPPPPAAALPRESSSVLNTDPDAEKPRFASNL
Assay: Whole-cell patch-clamp functional assay for human HCN1 channel currents
Format: cell-based
Details: HEK293 cells expressing human HCN1, step to -120 mV from holding -40 mV
Description: Human HCN1 channel currents were detected under voltage-clamp using the whole-cell configuration of the patch-clamp technique. Appropriate cells (HEK293) expressing human HCN1 channel subunits were placed in a recording chamber containing extracellular solution (Sodium chloride 135 mM; Potassium chloride 5 mM; Calcium chloride 1.8 mM; Magnesium chloride 0.5 mM; HEPES 5 mM) at a temperature of 20-25 degrees centigrade. In some experiments the extracellular solution contained 30 mM Potassium chloride, in which cases the Sodium chloride concentration was reduced to 110 mM. […] The membrane current was recorded throughout the experiment. […] The membrane current was measured just after (1-10 milliseconds) the start of the hyperpolarising step and just before (10-100 milliseconds) its end. […] For each cell, the current amplitude was determined first in normal extracellular solution and then in extracellular solution containing caesium chloride (FIG. 3) or ZD 7288 (FIGS. 4 and 7). Alternatively, the effect of caesium chloride (5 mM) on human HCN1 channel currents was determined by measuring the current-voltage relationship in normal extracellular solution and also in extracellular solution containing caesium chloride (FIG. 6). […]

Compound	Effect on human HCN1 channel currents (caesium chloride 5 mM in extracellular solution)	Effect on human HCN1 channel currents (ZD 7288 100 micromolar in extracellular solution)
[Cl-].[Cs+] [caesium chloride]	reduced	
CCN(c1ccccc1)c1cc(=NC)n(C)c(C)n1.Cl [ZD 7288]		reduced

Source: patent US7329510B2, “Full length human HCN1Ih channel subunit and variants” (N.V. Organon, priority 2000, dated 2008)
